{
  "source": "patent US9834542B2",
  "about": "“LXR modulators” (BRISTOL-MYERS SQUIBB COMPANY, priority 2013, dated 2017)",
  "biological_target": "T1, LXRβ (Homo sapiens, UniProt P55055)",
  "T1 construct": "Co-transfection expression plasmids, comprising full-length LXRα (pCMX-h LXRα[…] or LXRβ (pCMX-hLXRβ)); expressed in transfected cells; host or cells: CV-1 African Green Monkey Kidney Cells",
  "T1 sequence (P55055 1-460)": "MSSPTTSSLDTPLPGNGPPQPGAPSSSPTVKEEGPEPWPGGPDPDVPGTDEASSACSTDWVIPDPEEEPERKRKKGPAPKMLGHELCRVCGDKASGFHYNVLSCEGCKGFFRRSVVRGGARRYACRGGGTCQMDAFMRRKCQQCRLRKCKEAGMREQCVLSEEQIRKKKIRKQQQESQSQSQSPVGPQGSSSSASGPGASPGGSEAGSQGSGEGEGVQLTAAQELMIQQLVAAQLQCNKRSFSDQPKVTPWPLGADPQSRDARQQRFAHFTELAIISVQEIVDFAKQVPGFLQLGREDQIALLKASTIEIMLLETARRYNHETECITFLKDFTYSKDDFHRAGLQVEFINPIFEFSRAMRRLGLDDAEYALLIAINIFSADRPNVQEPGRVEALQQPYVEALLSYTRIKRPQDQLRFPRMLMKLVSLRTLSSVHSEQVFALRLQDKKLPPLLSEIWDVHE",
  "T1 sequence (P19793 1-462 partner)": "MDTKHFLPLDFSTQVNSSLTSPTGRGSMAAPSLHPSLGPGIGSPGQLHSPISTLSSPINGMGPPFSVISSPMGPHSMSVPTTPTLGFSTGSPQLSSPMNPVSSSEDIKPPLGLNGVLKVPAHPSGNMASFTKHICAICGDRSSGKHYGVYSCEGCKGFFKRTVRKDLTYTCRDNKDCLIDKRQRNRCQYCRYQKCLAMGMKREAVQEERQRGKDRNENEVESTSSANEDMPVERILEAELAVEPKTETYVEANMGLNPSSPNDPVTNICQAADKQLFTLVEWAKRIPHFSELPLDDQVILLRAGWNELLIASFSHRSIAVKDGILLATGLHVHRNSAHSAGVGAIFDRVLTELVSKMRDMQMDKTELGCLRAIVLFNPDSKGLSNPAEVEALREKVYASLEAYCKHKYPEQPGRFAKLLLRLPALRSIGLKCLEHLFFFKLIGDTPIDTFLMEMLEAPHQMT",
  "test": "Co-transfection assay (LXRE luciferase reporter), LXRβ",
  "assay_type": "cell-based",
  "conditions": "for EC50: CV-1 cells transfected with pCMX-hLXRβ and LXREx1-Tk-Luciferase, 20 hours incubation; for Emax: LXRβ co-transfection, relative to high control 1-(2,4-difluorobenzyl)-2-oxo-6-(4-phenoxyphenyl)-4-(trifluoromethyl)-1,2-dihydropyridine-3-carbonitrile, read-out: % Efficacy",
  "outline": "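Cell-based LXRβ agonism measured as LXRE-luciferase induction in transiently transfected CV-1 cells after 20 h treatment. Potency is the curve-fit EC50; efficacy is expressed as percent of a full-agonist control's maximal response.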",
  "data": [
    {"smiles": "Cc1nc(-c2cc(-c3cc(F)c(CO)c(S(C)(=O)=O)c3)ccc2-n2cc(C(F)(F)F)nc2C)c(-c2ccc(OCC3CC3)c(F)c2)o1", "note": "[Example 405, (3′-(5-(4-(cyclopropylmethoxy)-3-fluorophenyl)-2-methyloxazol-4-yl)-3-fluoro-4′-(2-methyl-4-(trifluoromethyl)-1H-imidazol-1-yl)-5-(methylsulfonyl)biphenyl-4-yl)methanol]", "values": [
      {"measurement": "EC50", "value": 68, "unit": "nM"},
      {"measurement": "Emax", "value": 59, "unit": "%"}
    ]},
    {"smiles": "CCc1nc(-c2cc(-c3cc(F)c(CO)c(S(C)(=O)=O)c3)ccc2-n2cc(C(F)(F)F)nc2C)c(-c2ccc(OC(F)(F)F)cc2)o1", "note": "[Example 556, (3′-(2-ethyl-5-(4-(trifluoromethoxy)phenyl)oxazol-4-yl)-3-fluoro-4′-(2-methyl-4-(trifluoromethyl)-1H-imidazol-1-yl)-5-(methylsulfonyl)-[1,1′-biphenyl]-4-yl)methanol]", "values": [
      {"measurement": "EC50", "value": 13, "unit": "nM"},
      {"measurement": "Emax", "value": 100, "unit": "%"}
    ]},
    {"smiles": "CCS(=O)(=O)c1cccc(-c2ccc(-n3cc(C(F)(F)F)nc3C)c(-n3nncc3-c3ccc(OC(F)(F)F)cc3)c2)c1", "note": "[Example 215, 1-(3′-(ethylsulfonyl)-4-(2-methyl-4-(trifluoromethyl)-1H-imidazol-1-yl)-[1,1-biphenyl]-3-yl)-5-(4-(trifluoromethoxy)phenyl)-1H-1,2,3-triazole]", "values": [
      {"measurement": "EC50", "value": 334, "unit": "nM"},
      {"measurement": "Emax", "value": 86, "unit": "%"}
    ]},
    {"smiles": "Cc1nc(C(F)(F)F)cn1-c1ccc(-c2cccc(S(C)(=O)=O)c2)cc1-n1nncc1-c1ccc(CF)cc1", "note": "[Example 4, 5-[4-(fluoromethyl)phenyl]-1-{3′-(methylsulfonyl)-4-[2-methyl-4-(trifluoromethyl)-1H-imidazol-1-yl]biphenyl-3-yl}-1H-1,2,3-triazole]", "values": [
      {"measurement": "EC50", "value": 559, "unit": "nM"},
      {"measurement": "Emax", "value": 89, "unit": "%"}
    ]},
    {"smiles": "CS(=O)(=O)c1cccc(-c2ccc(-n3cnc(C(F)F)c3)c(-n3nncc3-c3ccc(OC(F)(F)F)cc3)c2)c1", "note": "[Example 170, 1-{4-[4-(difluoromethyl)-1H-imidazol-1-yl]-3′-(methylsulfonyl)biphenyl-3-yl}-5-{4-[(trifluoromethyl)oxy]phenyl}-1H-1,2,3-triazole]", "values": [
      {"measurement": "EC50", "value": 3330, "unit": "nM"},
      {"measurement": "Emax", "value": 92, "unit": "%"}
    ]},
    {"smiles": "Cc1nc(-c2cc(-c3cccc(S(C)(=O)=O)c3)ccc2-n2cc(C(F)(F)F)nc2C)c(-c2ccc3ccccc3c2)o1", "note": "[Example 436, 2-methyl-4-(4-(2-methyl-4-(trifluoromethyl)-1H-imidazol-1-yl)-3′-(methylsulfonyl)biphenyl-3-yl)-5-(naphthalen-2-yl)oxazole]", "values": [
      {"measurement": "EC50", "value": 76, "unit": "nM"},
      {"measurement": "Emax", "value": 77, "unit": "%"}
    ]},
    {"smiles": "Cc1nc(-c2cc(-c3cc(F)c(CO)c(S(C)(=O)=O)c3)ccc2-n2cc(C(F)(F)F)nc2C)c(-c2cccc(OC(F)(F)F)c2)o1", "note": "[Example 545, (3-fluoro-4′-(2-methyl-4-(trifluoromethyl)-1H-imidazol-1-yl)-3′-(2-methyl-5-(3-(trifluoromethoxy)phenyl)oxazol-4-yl)-5-(methylsulfonyl)-[1,1′-biphenyl]-4-yl)methanol]", "values": [
      {"measurement": "EC50", "value": 38, "unit": "nM"},
      {"measurement": "Emax", "value": 32, "unit": "%"}
    ]},
    {"smiles": "Cc1nc(C(F)(F)F)cn1-c1ccc(-c2cccc(S(C)(=O)=O)c2)cc1-c1ccnn1-c1ccc(Cl)cc1", "note": "[Example 286, 1-(4-chlorophenyl)-5-{3′-(methylsulfonyl)-4-[2-methyl-4-(trifluoromethyl)-1H-imidazol-1-yl]biphenyl-3-yl}-1H-pyrazole]", "values": [
      {"measurement": "EC50", "value": 152, "unit": "nM"},
      {"measurement": "Emax", "value": 84, "unit": "%"}
    ]},
    {"smiles": "COc1ccc(-c2cnnn2-c2cc(-c3cccc(S(C)(=O)=O)c3)ccc2-n2cc(C(F)(F)F)nc2C)c(OC)c1", "note": "[Example 93, 5-[2,4-bis(methyloxy)phenyl]-1-{3′-(methylsulfonyl)-4-[2-methyl-4-(trifluoromethyl)-1H-imidazol-1-yl]biphenyl-3-yl}-1H-1,2,3-triazole]", "values": [
      {"measurement": "EC50", "value": 2150, "unit": "nM"},
      {"measurement": "Emax", "value": 40, "unit": "%"}
    ]},
    {"smiles": "CNS(=O)(=O)c1cccc(-c2ccc(-n3cc(C(F)(F)F)nc3C)c(-c3nc(C)oc3-c3ccc(OC(F)F)cc3)c2)c1", "note": "[Example 540, 3′-(5-(4-(difluoromethoxy)phenyl)-2-methyloxazol-4-yl)-N-methyl-4′-(2-methyl-4-(trifluoromethyl)-1H-imidazol-1-yl)-[1,1′-biphenyl]-3-sulfonamide]", "values": [
      {"measurement": "EC50", "value": 28, "unit": "nM"},
      {"measurement": "Emax", "value": 106, "unit": "%"}
    ]},
    {"smiles": "Cc1nc(-c2ccc(OC(F)F)cc2)c(-c2cc(-c3cccc(S(C)(=O)=O)c3)ccc2-n2cc(C(F)(F)F)nc2C)o1", "note": "[Example 619, 4-(4-(difluoromethoxy)phenyl)-2-methyl-5-(4-(2-methyl-4-(trifluoromethyl)-1H-imidazol-1-yl)-3′-(methylsulfonyl)-[1,1′-biphenyl]-3-yl)oxazole]", "values": [
      {"measurement": "EC50", "value": 51, "unit": "nM"},
      {"measurement": "Emax", "value": 112, "unit": "%"}
    ]},
    {"smiles": "Cc1nc(-c2cc(-c3cc(F)c(CO)c(S(C)(=O)=O)c3)ccc2-n2cc(C(F)(F)F)nc2C)c(-c2cccnc2OC(F)F)o1", "note": "[Example 389, (3′-(5-(2-(difluoromethoxy)pyridin-3-yl)-2-methyloxazol-4-yl)-3-fluoro-4′-(2-methyl-4-(trifluoromethyl)-1H-imidazol-1-yl)-5-(methylsulfonyl)biphenyl-4-yl)methanol]", "values": [
      {"measurement": "EC50", "value": 239, "unit": "nM"},
      {"measurement": "Emax", "value": 39, "unit": "%"}
    ]},
    {"smiles": "Cc1nc(-c2cc(-c3cccc(S(C)(=O)=O)c3)ccc2-n2cc(C(F)(F)F)nc2C)c(-c2ccc(OC(F)(F)F)cc2)o1", "note": "[Example 366, 2-methyl-4-{3′-(methylsulfonyl)-4-[2-methyl-4-(trifluoromethyl)-1H-imidazol-1-yl]biphenyl-3-yl}-5-{4-[(trifluoromethyl)oxy]phenyl}-1,3-oxazole]", "values": [
      {"measurement": "EC50", "value": 77, "unit": "nM"},
      {"measurement": "Emax", "value": 89, "unit": "%"}
    ]},
    {"smiles": "Cc1nc(C(F)(F)F)cn1-c1ccc(-c2ccc(CO)c(S(C)(=O)=O)c2)cc1-c1nc(C(C)C)oc1-c1ccc(OC(F)(F)F)cc1", "note": "[Example 521, (3′-(2-isopropyl-5-(4-(trifluoromethoxy)phenyl)oxazol-4-yl)-4′-(2-methyl-4-(trifluoromethyl)-1H-imidazol-1-yl)-3-(methylsulfonyl)-[1,1′-biphenyl]-4-yl)methanol]", "values": [
      {"measurement": "EC50", "value": 21, "unit": "nM"},
      {"measurement": "Emax", "value": 71, "unit": "%"}
    ]},
    {"smiles": "Cc1nc(-c2ccc(Cl)cc2Cl)c(-c2cc(-c3cccc(S(C)(=O)=O)c3)ccc2-n2cc(C(F)(F)F)nc2C)o1", "note": "[Example 608, 4-(2,4-dichlorophenyl)-2-methyl-5-(4-(2-methyl-4-(trifluoromethyl)-1H-imidazol-1-yl)-3′-(methylsulfonyl)-[1,1′-biphenyl]-3-yl)oxazole]", "values": [
      {"measurement": "EC50", "value": 90, "unit": "nM"},
      {"measurement": "Emax", "value": 100, "unit": "%"}
    ]},
    {"smiles": "Cc1nc(C(F)(F)F)cn1-c1ccc(-c2cc(F)c(CO)c(S(C)(=O)=O)c2)cc1-c1nc(C(F)(F)F)cn1-c1ccc(Cl)cc1", "note": "[Example 645, (3′-(1-(4-chlorophenyl)-4-(trifluotomethyl)-1H-imidazol-2-yl)-3-fluoro-4′-(2-methyl-4-(trifluoromethyl)-1H-imidazol-1-yl)-5-(methylsulfonyl)biphenyl-4-yl)methanol]", "values": [
      {"measurement": "EC50", "value": 144, "unit": "nM"},
      {"measurement": "Emax", "value": 32, "unit": "%"}
    ]},
    {"smiles": "Cc1cc(-c2oc(C)nc2-c2cc(-c3cccc(S(C)(=O)=O)c3)ccc2-n2cc(C(F)(F)F)nc2C)cc(Cl)n1", "note": "[Example 451, 5-(2-chloro-6-methylpyridin-4-yl)-2-methyl-4-(4-(2-methyl-4-(trifluoromethyl)-1H-imidazol-1-yl)-3′-(methylsulfonyl)biphenyl-3-yl)oxazole]", "values": [
      {"measurement": "EC50", "value": 126, "unit": "nM"},
      {"measurement": "Emax", "value": 61, "unit": "%"}
    ]},
    {"smiles": "COc1ncc(F)cc1-c1oc(C)nc1-c1cc(-c2cccc(S(C)(=O)=O)c2)ccc1-n1cc(C(F)(F)F)nc1C", "note": "[Example 400]", "values": [
      {"measurement": "EC50", "value": 1160, "unit": "nM"},
      {"measurement": "Emax", "value": 55, "unit": "%"}
    ]},
    {"smiles": "Cc1nc(-c2cc(-c3cc(F)c(CO)c(S(C)(=O)=O)c3)ccc2-n2cc(C(F)(F)F)nc2C)c(-c2cccnc2Cl)o1", "note": "[Example 549, (3′-(5-(2-chloropyridin-3-yl)-2-methyloxazol-4-yl)-3-fluoro-4′-(2-methyl-4-(trifluoromethyl)-1H-imidazol-1-yl)-5-(methylsulfonyl)-[1,1′-biphenyl]-4-yl)methanol]", "values": [
      {"measurement": "EC50", "value": 483, "unit": "nM"},
      {"measurement": "Emax", "value": 87, "unit": "%"}
    ]},
    {"smiles": "CNS(=O)(=O)c1cccc(-c2ccc(-n3cc(C(C)(F)F)nc3C)c(-n3nncc3-c3ccc(OC(F)(F)F)cc3)c2)c1", "note": "[Example 175, 4′-[4-(1,1-difluoroethyl)-2-methyl-1H-imidazol-1-yl]-N-methyl-3′-(5-{4-[(trifluoromethyl)oxy]phenyl}-1H-1,2,3-triazol-1-yl)biphenyl-3-sulfonamide]", "values": [
      {"measurement": "EC50", "value": 315, "unit": "nM"},
      {"measurement": "Emax", "value": 79, "unit": "%"}
    ]}
  ]
}
